“Also recorded” adds a separate entry of the source.
Assays:
[1] = patients treated with CPG; cited from earlier work
[2] = molecular target: P2Y12R (Homo sapiens, UniProt Q9H244); details: biosynthesized H2, relative to H4; cited from earlier work
[3] = system: FeCl3 carotid artery injury-induced thrombosis; experiment: FeCl3 carotid artery injury-induced thrombosis mouse model (in vivo antiplatelet test); details: for occlusion time of thrombosis: tail vein administration of 1 mg/kg, compared to vehicle (negative control) and CPG (positive control), FIG. 14, 1 mg/kg
Source text: Referring now to FIGS. 14-18, In vivo antiplatelet test of synthetic H3 and H4 in a FeCl3 carotid artery injury-induced thrombosis mouse model.

[4] = system: antiplatelet activity; details: cited from earlier work

P2Y12R, sequence (Q9H244 whole entry): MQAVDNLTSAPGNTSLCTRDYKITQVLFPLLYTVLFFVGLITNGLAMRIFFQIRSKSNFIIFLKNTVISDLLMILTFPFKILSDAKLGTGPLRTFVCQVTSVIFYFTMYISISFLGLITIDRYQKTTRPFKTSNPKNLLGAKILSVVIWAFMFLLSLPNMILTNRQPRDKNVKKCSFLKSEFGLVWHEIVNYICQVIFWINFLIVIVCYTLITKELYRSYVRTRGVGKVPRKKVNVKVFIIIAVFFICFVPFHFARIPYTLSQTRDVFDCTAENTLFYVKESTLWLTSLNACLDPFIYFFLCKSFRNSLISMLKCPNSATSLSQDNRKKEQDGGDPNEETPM

Structure (SMILES) | detection as circulating metabolite in patients' plasma [1] | potency against P2Y12R in vitro [2] | occlusion time of thrombosis [3] | stereospecific potency in vivo ([3]; synthetic metabolite, mice) | activity in in vitro pharmacological studies (antiplatelet) [4]
COC(=O)[C@H](c1ccccc1Cl)N1CC[C@@H](S)/C(=C\C(=O)O)C1 [H2] | not detected | similarly potent as H4 | – | – | –
COC(=O)[C@H](c1ccccc1Cl)N1CC[C@@H](S)/C(=C\C(=O)O)C1 [H3] | detected as circulating metabolites | – | ineffective | – | –
COC(=O)[C@H](c1ccccc1Cl)N1CC[C@@H](S)/C(=C\C(=O)O)C1 [H4] | detected as circulating metabolites | – | significantly prolong the occlusion time of thrombosis | stereospecific potency in mice; also recorded: stereospecific potency in vivo | active

Reference: patent publication US11642335B2, “Chemical synthesis of clopidogrel active metabolites and disulfide conjugate prodrugs” (Board of Regents, The University of Texas System, priority 2019, dated 2023)
